Measurements: ChEMBL document CHEMBL1148029, “Synthesis and radiopharmacological characterization of 2beta-carbo-2'-[18F]fluoroethoxy-3beta-(4-bromo-phenyl)tropane ([18F]MCL-322) as a PET radiotracer for imaging the dopamine transporter (DAT)” (Bioorg Med Chem, 2007)

Assays:
Lung = assay: Biodistribution in Wistar rat lung at 300 uCi, iv after 5 mins; assay type: ADME, organism-based; details: in vivo
Cortex = assay: Biodistribution in Wistar rat cortex at 300 uCi, iv after 60 mins in presence of nisoxetine; assay type: ADME, organism-based; details: in vivo, 1 h
[1] = Biodistribution in Wistar rat brown fat at 300 uCi, iv after 120 mins; assay type: ADME, organism-based, Brown adipose tissue; details: in vivo, 2 h
Thymus = assay: Biodistribution in Wistar rat thymus at 300 uCi, iv after 120 mins; assay type: ADME, organism-based; details: in vivo, 2 h
Femur = assay: Biodistribution in Wistar rat femur at 300 uCi, iv after 120 mins; assay type: ADME, organism-based; details: in vivo, 2 h
[2] = Biodistribution in Wistar rat rest of brain at 300 uCi, iv after 5 mins; assay type: ADME, organism-based; details: in vivo
Hippocampus = assay: Biodistribution in Wistar rat hippocampus at 300 uCi, iv after 240 mins; assay type: ADME, organism-based; details: in vivo, 4 h
[3] = Biodistribution in Wistar rat rest of brain at 300 uCi, iv after 240 mins; assay type: ADME, organism-based; details: in vivo, 4 h

In the case of `CN1C2CCC1C(C(=O)OCC[18F])C(c1ccc(Br)cc1)C2` (stereo not drawn), the Drug uptake (Lung) is reported as 6.53 % ID/g, the Drug uptake (Cortex) is reported as 0.96 % ID/g and the Drug uptake [1] is reported as 0.21 % ID/g. It also gave a Drug uptake (Thymus) of 0.21 % ID/g, a Drug uptake (Femur) of 0.1 % ID/g and a Drug uptake [2] of 2.53 % ID/g. The Drug uptake (Hippocampus) was 0.18 % ID/g and the Drug uptake [3] was 0.27 % ID/g.
